From US20140011799A1 (Bristol-Myers Squibb Company, priority 2012, published 2014)
Each block holds one compound with its values, some of them ahead of it.

How the values were obtained:
[1] = target: T1, hepatic lipase (HL) (Homo sapiens, UniProt P11150); assay: Hepatic lipase (HL) enzymatic assay, fluorescent substrate A10070 in DMPG vesicles; format: biochemical; settings: HL partially purified from conditioned media of COS cells; compound preincubated 30 min at 37° C; read-out: HL IC50
T1 construct: made in house; host or cells: COS cells (conditioned medium, partially purified)
T1 sequence (P11150 23-499): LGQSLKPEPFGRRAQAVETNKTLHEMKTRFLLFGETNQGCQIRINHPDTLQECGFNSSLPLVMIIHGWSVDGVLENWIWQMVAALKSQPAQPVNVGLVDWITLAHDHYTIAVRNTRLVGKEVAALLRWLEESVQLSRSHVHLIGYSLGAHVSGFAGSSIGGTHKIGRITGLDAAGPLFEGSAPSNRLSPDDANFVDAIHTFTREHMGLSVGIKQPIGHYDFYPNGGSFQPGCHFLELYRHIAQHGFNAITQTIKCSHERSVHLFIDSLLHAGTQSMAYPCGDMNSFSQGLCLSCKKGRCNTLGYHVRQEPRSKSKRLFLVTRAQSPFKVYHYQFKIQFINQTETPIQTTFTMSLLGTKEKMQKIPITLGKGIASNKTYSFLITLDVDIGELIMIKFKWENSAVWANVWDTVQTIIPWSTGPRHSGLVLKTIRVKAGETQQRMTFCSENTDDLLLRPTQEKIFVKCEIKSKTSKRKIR
Summary of the method: (§1)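 EL from conditioned medium of HT-1080 cells engineered to overexpress endogenous EL; HL partially purified from conditioned medium of HL-overexpressing COS cells. Enzyme preincubated with compound 30 min at 37° C in 50 mM HEPES pH 8.0, 50 mM NaCl, 1 mM CaCl2; DMPG vesicles carrying FRET substrate (0.11 mole fraction) then added.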

[2] = target: T2, Endothelial lipase (EL) (Homo sapiens, UniProt Q9Y5X9); assay: Endothelial lipase (EL) enzymatic assay, fluorescent substrate A10070 in DMPG vesicles; format: biochemical; settings: EL from conditioned media of HT-1080 cells; compound preincubated 30 min at 37° C; read-out: EL IC50
T2 construct: HT-1080 cells that were transformed using RAGE technology (Athersys) to overexpress endogenous EL; endogenous in cells; conditioned medium used
T2 sequence (Q9Y5X9 21-500): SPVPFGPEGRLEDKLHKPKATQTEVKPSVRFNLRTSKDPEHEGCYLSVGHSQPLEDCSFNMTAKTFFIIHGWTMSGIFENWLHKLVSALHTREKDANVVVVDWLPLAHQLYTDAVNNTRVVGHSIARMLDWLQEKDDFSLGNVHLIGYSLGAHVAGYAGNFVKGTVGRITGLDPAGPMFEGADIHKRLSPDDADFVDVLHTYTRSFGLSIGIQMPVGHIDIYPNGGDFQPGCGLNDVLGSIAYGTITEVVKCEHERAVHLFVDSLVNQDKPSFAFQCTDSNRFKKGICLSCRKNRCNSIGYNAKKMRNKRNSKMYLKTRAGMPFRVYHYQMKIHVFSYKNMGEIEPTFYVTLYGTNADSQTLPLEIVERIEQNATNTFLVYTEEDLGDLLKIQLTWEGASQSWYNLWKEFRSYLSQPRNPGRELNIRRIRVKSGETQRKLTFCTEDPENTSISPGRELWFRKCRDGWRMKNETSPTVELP
Summary of the method: as §1

SMILES: CC1(Cc2nnc(C(c3nc4ccc(-c5cccc(C(=O)N6CCC(O)CC6)c5)cc4s3)S(C)(=O)=O)o2)NC(=O)NC1=O (centres unmarked) [Example 212, 5-{[5-({6-[3-(4-hydroxypiperidine-1-carbonyl)phenyl]-1,3-benzothiazol-2-yl} (methanesulfonyl)methyl)-1,3,4-oxadiazol-2-yl]methyl}-5-methyl-imidazolidine-2,4-dione]
IC50 [1]: 1100 nM
IC50 [2]: 2 nM

SMILES: CNC(=O)c1cccc(-c2ccc3nc(C(c4nnc(CC5(C)NC(=O)NC5=O)o4)S(C)(=O)=O)sc3c2)c1 (centres unmarked) [Example 218, 3-{2-[methanesulfonyl({5-[(4-methyl-2,5-dioxoimidazolidin-4-yl)methyl]-1,3,4-oxadiazol-2-yl})methyl]-1,3-benzothiazol-6-yl}-N-methylbenzamide]
IC50 [1]: 262 nM
IC50 [2]: 10 nM

SMILES: CC1(Cc2nnc(C(c3nc4ccc(-c5cccc(C(=O)N6CC[C@@H](O)C6)c5)cc4s3)S(C)(=O)=O)o2)NC(=O)NC1=O (stereo partly drawn) [Example 219, 5-({5-[(6-{3-[(3R)-3-hydroxypyrrolidine-1-carbonyl]phenyl}-1,3-benzothiazol-2-yl) (methanesulfonyl)methyl]-1,3,4-oxadiazol-2-yl}methyl)-5-methyl-imidazolidine-2,4-dione]
IC50 [1]: 2300 nM
IC50 [2]: 2 nM

SMILES: COC1(C)CN(C(=O)c2cccc(-c3ccc4nc(C(c5nnc(CC6(C)NC(=O)NC6=O)o5)S(C)(=O)=O)sc4c3)c2)C1 (centres unmarked) [Example 222, 5-({5-[methanesulfonyl({6-[3-(3-methoxy-3-methyl-azetidine-1-carbonyl)phenyl]-1,3-benzothiazol-2-yl})methyl]-1,3,4-oxadiazol-2-yl}methyl)-5-methyl-imidazolidine-2,4-dione]
IC50 [1]: 162 nM
IC50 [2]: 8 nM

SMILES: CC1(Cc2nnc(C(c3nc4ccc(-c5cccc(C(=O)NC6CC(F)(F)C6)c5)cc4s3)S(C)(=O)=O)o2)NC(=O)NC1=O (centres unmarked) [Example 223, N-(3,3-difluorocyclobutyl)-3-{2-[methanesulfonyl({5-[(4-methyl-2,5-dioxo-imidazolidin-4-yl)methyl]-1,3,4-oxadiazol-2-yl})methyl]-1,3-benzothiazol-6-yl} benzamide]
IC50 [1]: 55 nM
IC50 [2]: 32 nM

SMILES: CC1(NC(=O)c2cccc(-c3ccc4nc(C(c5nnc(CC6(C)NC(=O)NC6=O)o5)S(C)(=O)=O)sc4c3)c2)CC1 (centres unmarked) [Example 224, 3-{2-[methanesulfonyl({5-[(4-methyl-2,5-dioxo-imidazolidin-4-yl)methyl]-1,3,4-oxadiazol-2-yl})methyl]-1,3-benzothiazol-6-yl}-N-(1-methylcyclopropyl) benzamide]
IC50 [1]: 76 nM
IC50 [2]: 11 nM

SMILES: COCCN(C)C(=O)c1cccc(-c2ccc3nc(C(c4nnc(CC5(C)NC(=O)NC5=O)o4)S(C)(=O)=O)sc3c2)c1 (centres unmarked) [Example 227, 3-{2-[methanesulfonyl({5-[(4-methyl-2,5-dioxo-imidazolidin-4-yl)methyl]-1,3,4-oxadiazol-2-yl})methyl]-1,3-benzothiazol-6-yl}-N-(2-methoxyethyl)-N-methylbenzamide]
IC50 [1]: 356 nM
IC50 [2]: 38 nM

SMILES: CC1(Cc2nnc(C(c3nc4ccc(-c5cccc(C(=O)N6CC[C@H](F)C6)c5)cc4s3)S(C)(=O)=O)o2)NC(=O)NC1=O (stereo partly drawn) [Example 228, 5-({5-[(6-{3-[(3S)-3-fluoropyrrolidine-1-carbonyl]phenyl}-1,3-benzothiazol-2-yl) (methanesulfonyl)methyl]-1,3,4-oxadiazol-2-yl}methyl)-5-methyl-imidazolidine-2,4-dione]
IC50 [1]: 170 nM
IC50 [2]: 114 nM

SMILES: CC1(Cc2nnc(C(c3nc4ccc(-c5cccc(C(=O)N6CC[C@@H](F)C6)c5)cc4s3)S(C)(=O)=O)o2)NC(=O)NC1=O (stereo partly drawn) [Example 232, 5-({5-[(6-{3-[(3R)-3-fluoropyrrolidine-1-carbonyl]phenyl}-1,3-benzothiazol-2-yl) (methanesulfonyl)methyl]-1,3,4-oxadiazol-2-yl}methyl)-5-methyl-imidazolidine-2,4-dione]
IC50 [1]: 54 nM
IC50 [2]: 1 nM

Next, values leading:

IC50 [1]: 25 nM
IC50 [2]: 1 nM
SMILES: CN(C(=O)c1cccc(-c2ccc3nc(C(c4nnc(CC5(C)NC(=O)NC5=O)o4)S(C)(=O)=O)sc3c2)c1)C1CC1 (centres unmarked) [Example 221, N-cyclopropyl-3-{2-[methanesulfonyl({5-[(4-methyl-2,5-dioxoimidazolidin-4-yl)methyl]-1,3,4-oxadiazol-2-yl})methyl]-1,3-benzothiazol-6-yl}-N-methylbenzamide]

IC50 [1]: 51 nM
IC50 [2]: 5 nM
SMILES: CC1(Cc2nnc(C(c3nc4ccc(-c5cccc(C(=O)NC6CC6)c5)cc4s3)S(C)(=O)=O)o2)NC(=O)NC1=O (centres unmarked) [Example 225, N-cyclopropyl-3-{2-[methanesulfonyl({5-[(4-methyl-2,5-dioxo-imidazolidin-4-yl)methyl]-1,3,4-oxadiazol-2-yl})methyl]-1,3-benzothiazol-6-yl}benzamide]

IC50 [1]: 53 nM
IC50 [2]: 35 nM
SMILES: CC(C)CN(C)C(=O)c1cccc(-c2ccc3nc(C(c4nnc(CC5(C)NC(=O)NC5=O)o4)S(C)(=O)=O)sc3c2)c1 (centres unmarked) [Example 226, 3-{2-[methanesulfonyl({5-[(4-methyl-2,5-dioxo-imidazolidin-4-yl)methyl]-1,3,4-oxadiazol-2-yl})methyl]-1,3-benzothiazol-6-yl}-N-methyl-N-(2-methylpropyl)benzamide]

IC50 [1]: 18 nM
IC50 [2]: 1 nM
SMILES: CS(=O)(=O)C(c1nnc(CNS(N)(=O)=O)o1)c1nc2cc(-c3ccc(F)nc3)ccc2s1 (centres unmarked) [Example 233, N-[(5-{[5-(6-fluoropyridin-3-yl)-1,3-benzothiazol-2-yl] (methanesulfonyl)methyl}-1,3,4-oxadiazol-2-yl)methyl]aminosulfonamide]

IC50 [1]: 17 nM
IC50 [2]: 4 nM
SMILES: COCc1ccc(-c2ccc3nc(C(c4nnc(CNS(N)(=O)=O)o4)S(=O)(=O)Cc4cc(C(F)(F)F)cc(C(F)(F)F)c4)sc3c2)cc1 (centres unmarked) [Example 234, N-[(5-{[3,5-bis(trifluoromethyl)phenyl]methanesulfonyl({6-[4-(methoxymethyl)phenyl]-1,3-benzothiazol-2-yl})methyl}-1,3,4-oxadiazol-2-yl)methyl]aminosulfonamide]

IC50 [1]: 6 nM
IC50 [2]: 4 nM
SMILES: COCc1ccc(-c2ccc3nc(C(c4nnc(CNS(N)(=O)=O)o4)S(=O)(=O)Cc4cc(Cl)cc(Cl)c4)sc3c2)cc1 (centres unmarked) [Example 235, N-({5-[(3,5-dichlorophenyl)methanesulfonyl({6-[4-(methoxymethyl)phenyl]-1,3-benzothiazol-2-yl})methyl]-1,3,4-oxadiazol-2-yl}methyl)aminosulfonamide]

IC50 [1]: 1 nM
IC50 [2]: 1 nM
SMILES: COCc1ccc(-c2ccc3nc(C(c4nnc(CNS(N)(=O)=O)o4)S(=O)(=O)Cc4ccc(C(F)(F)F)cc4)sc3c2)cc1 (centres unmarked) [Example 236, N-{[5-({6-[4-(methoxymethyl)phenyl]-1,3-benzothiazol-2-yl}[4-(trifluoromethyl)phenyl]meth-anesulfonylmethyl)-1,3,4-oxadiazol-2-yl]methyl} aminosulfonamide]

IC50 [1]: 2 nM
IC50 [2]: 1 nM
SMILES: COCc1ccc(-c2ccc3nc(C(c4nnc(CNS(N)(=O)=O)o4)S(=O)(=O)Cc4ccc(OC(F)(F)F)cc4)sc3c2)cc1 (centres unmarked) [Example 237, N-{[5-({6-[4-(methoxymethyl)phenyl]-1,3-benzothiazol-2-yl}[4-(trifluoromethoxy)phenyl]methanesulfonylmethyl)-1,3,4-oxadiazol-2-yl]methyl} aminosulfonamide]

IC50 [1]: 18 nM
IC50 [2]: 4 nM
SMILES: NS(=O)(=O)NCc1nnc(C(c2nc3ccc(-c4ccc(F)nc4)cc3s2)S(=O)(=O)Cc2ccc(C(F)(F)F)cc2)o1 (centres unmarked) [Example 238, N-[(5-{[6-(6-fluoropyridin-3-yl)-1,3-benzothiazol-2-yl] [4-(trifluoromethyl)phenyl]methanesulfonylmethyl}-1,3,4-oxadiazol-2-yl)methyl]aminosulfonamide]

IC50 [1]: 9 nM
IC50 [2]: 4 nM
SMILES: NS(=O)(=O)NCc1nnc(C(c2nc3ccc(-c4ccc(F)nc4)cc3s2)S(=O)(=O)Cc2ccc(OC(F)(F)F)cc2)o1 (centres unmarked) [Example 239, N-[(5-{[6-(6-fluoropyridin-3-yl)-1,3-benzothiazol-2-yl] [4-(trifluoromethoxy)phenyl]methanesulfonylmethyl}-1,3,4-oxadiazol-2-yl)methyl] aminosulfonamide]
